For data set [1], the system named is LPS induced IL-6 production. Kind of data set: LPS (lipopolysaccharide) induced IL-6 production mouse assay. Conditions: SCID female mice, 3 mg/kg oral 1 h before LPS 2.5 mg/kg ip, serum IL-6 2 h after LPS; p<0.05. Format: in vivo, mice. The method, then:
LPS (Lipopolysaccharide) Induced IL-6 Production Mouse Assay
Compounds of the Examples listed in Table 2 were assayed for their ability to inhibit LPS (lipopolysaccharide) induced IL-6 (Interleukin-6) production in mice. Fox Chase SCID® female mice (Charles Rivers Labs, 5 per group) or CD1 female mice (5 mice per group) received an intraperitoneal challenge of lipopolysaccharide (2.5 mg/kg, L2630 E. coli 0111:B4) one hour after oral administration of compounds. Mice were euthanized 2 hours after lipopolysaccharide injection, blood was removed by cardiac puncture, and then the serum harvested from the blood samples was frozen at −80° C. On the day of the assay the serum samples were brought to room temperature and then diluted 1:20 in phosphate-buffered saline containing 2% bovine serum albumin. Interleukin-6 measurements were performed using a cytokine assay from Meso Scale Discovery (Gaithersburg, Md.) for mouse serum analysis according to the manufacturer's protocol and read on a SECTOR Imager 6000 (Meso Scale Discovery, Gaithersburg, Md.) instrument. Statistical analysis was performed using Prism software (version 5.0) incorporating Dunnett's one way ANOVA. The IL-6 mean and standard deviation of the group of vehicle treated animals were compared with the IL-6 mean and standard deviation of the group treated with drug. A p value <0.05 means that there is less than a 5% probability that the mean values in the two groups are equal.

The test system of data set [2] is OPM-2 human multiple myeloma cancer xenograft. Kind of data set: Xenograft tumor growth inhibition assay (OPM-2). It is filed as in vivo, mice. Particulars: for % TGI: QDx21, female SCID-beige mice; for % removed from study: QDx21, removed due to morbidity or weight loss in excess of 20%. As for the experimental part:
Xenograft Tumor Growth Inhibition Assay
The effect of compounds of the examples to inhibit the growth of OPM-2 xenograft tumors implanted in mice was evaluated. A suspension of cancer cells (5×10^6 per 0.1 mL) prepared in RPMI culture medium (Invitrogen, Carlsbad, Calif.) was diluted 1:1 with a solution of Matrigel™ (BD Biosciences, Franklin Lakes, N.J.) and inoculated subcutaneously into the right hind flank of female SCID-beige (Charles River Labs) mice. […] Administration of compound or vehicle was initiated on the day following randomization and continued for 21 days. Tumors were measured twice a week throughout the treatment period using a pair of calipers and tumor volumes were calculated according to the formula V=L×W^2/2 (V: volume, mm^3; L: length, mm. W: width, […]) Tumor growth inhibition was calculated based on the mean tumor volume measured on the first day that the mean volume of the vehicle group exceeded 2000 mm^3 according to the formula % TGI=100−mean tumor volume of treatment group/mean tumor volume of control group×100.

The target of data set [3] is T1, BRD4 (BDII_E352-M457) (Homo sapiens, UniProt O60885).
T1 construct: protocol; made in house
In words: TR-FRET bromodomain binding assay, BRD4 second bromodomain. (TR-FRET usually uses a lanthanide donor and a delayed reading to cut background.)

For data set [4], the target named is T2, BRD4 (BDI_K57-E168) (Homo sapiens, UniProt O60885).
T2 construct: BD1: amino acids K57-E168; made in house
Kind of data set: TR-FRET bromodomain binding assay, BRD4 first bromodomain. Particulars: His-tagged BD1, 100 nM Alexa647 probe; assay protocol D or F as given per row in c1; Ki calculated from IC50.

The test system of data set [5] is breast cancer cell line MX-1. Kind of data set: MX-1 cell line proliferation assay. Particulars: Homo sapiens, MX1; MX-1 cells, 3-day (72 h) proliferation, Cell Titer Glo; read-out: Cellular proliferation: EC50. It is filed as cell-based. The method in brief: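 MX-1 breast cancer cells (5000/well, RPMI 1640 + 10% FBS) adhered overnight, then got compound at final 3 μM down to 0.0001 μM (3-fold series) for a 3-day assay at 37 °C. Read-out: CellTiter-Glo luminescence normalized to DMSO; EC50 from sigmoidal fit.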
On the technique in general: Cellular ATP, detected with luciferase, serves as a proxy for viable cell number.

Structures are written as SMILES. Marks after values point to notes of the source that are not given here.

In the case of `Cn1cc2c3c(c[nH]c(=O)c31)CN(c1ccc(F)cc1)c1ccc(CS(C)(=O)=O)cc1-2` [Example 4], the % inhibition (usually the share of the control response that was lost under treatment) at 3 mg/kg (LPS induced IL-6 production) in data set [1] is recorded as 70%. The “% TGI” value in data set [2] (3.75 mg/kg PO) is given as 68*** %; in data set [2] (7.5 mg/kg PO), 84*** %. Also, the results for the “% removed from study” value in data set [2] (3.75 mg/kg PO) and in data set [2] (7.5 mg/kg PO) were 11% and 44%, respectively. The Ki (in general, a dissociation constant, usually derived from enzyme kinetics or from competition with a known ligand) in data set [3] was 2.15 nM; in data set [4] it was 0.61 nM. The EC50 in data set [5] was determined as 1.39 nM.
Turning to `Cn1cc2c3c(c[nH]c(=O)c31)CN(c1ccc(F)cc1F)c1ccc(CS(C)(=O)=O)cc1-2` [Example 5], the “% inhibition at 3 mg/kg (LPS induced IL-6 production)” value in data set [1] is on record as 71%. The “% TGI” value in data set [2] (2.5 mg/kg PO) was 66*** %; in data set [2] (5.0 mg/kg PO) it was 81*** %. In addition, the “% removed from study” value in data set [2] (2.5 mg/kg PO) is 0%; in data set [2] (5.0 mg/kg PO), 44%. Moreover, the Ki in data set [3] was 1.95 nM; in data set [4], 1.76 nM. In addition, the EC50 in data set [5] is 3.95 nM.

The values above are taken from patent US8980879B2 (AbbVie Inc., priority 2013, dated 2015).
